# Experimental data published in ChEMBL document CHEMBL5385972, “New azole derivatives linked to indole/indoline moieties combined with FLC against drug-resistant Candida albicans” (2024).
# Active and inactive are the calls of the source. The calls are words filed in the database; no cut-off is given here.
# Columns and labels:
# Candida albicans [1] = test: Synergistic antifungal activity against Candida albicans SC5314 assessed as fractional inhibitory concentration index incubated for 24 hrs in presence of fluconazole by microdilution assay; assay type: functional
# Candida albicans [2] = test: Synergistic antifungal activity against FLC-resistant Candida albicans SC5314 assessed as inhibition of fungal growth incubated for 24 hrs in presence of fluconazole by microdilution assay; assay type: functional
# Candida albicans [3] = test: Synergistic antifungal activity against Candida albicans SC5314 assessed as inhibition of fungal growth incubated for 24 hrs in presence of fluconazole by microdilution assay; assay type: functional
# Candida albicans [4] = test: Antifungal activity against Candida albicans SC5314 assessed as inhibition of fungal growth incubated for 24 hrs by microdilution assay; assay type: functional
# Candida albicans [5] = test: Synergistic antifungal activity against FLC-resistant Candida albicans SC5314 assessed as fractional inhibitory concentration index incubated for 24 hrs in presence of fluconazole by microdilution assay; assay type: functional
# Candida albicans [6] = test: Antifungal activity against Candida albicans SC5314 assessed as morphological change at 3 ug/ml incubated for 24 hrs by transmission electron microscopic analysis; assay type: functional, organism-based; conditions: dose 3.0 µg/ml
# Candida albicans [7] = test: Antifungal activity against FLC-resistant Candida albicans SC5314 assessed as inhibition of fungal growth incubated for 24 hrs by microdilution assay; assay type: functional
# Candida albicans [8] = test: Antifungal activity against FLC-resistant Candida albicans SC5314 assessed as inhibition of fungal growth at 3 ug/ml incubated for 48 hrs by time-kill assay; assay type: functional, organism-based; conditions: dose 3.0 µg/ml
# Candida albicans [9] = test: Inhibition of mitochondrial function in Candida albicans SC5314 assessed as reduction in ATP production at 3 ug/ml incubated for 16 hrs by chemiluminescence assay; assay type: functional; conditions: dose 3.0 µg/ml
# Cell membrane [10] = test: Induction of […] membrane permeabilization in Candida albicans SC5314 by measuring red fluorescence at 3 ug/ml incubated for 16 to 24 hrs by propyl iodide dye based fluorescence microscopic analysis; assay type: subcellular; conditions: dose 3.0 µg/ml, time 16-24 hrs
# Candida albicans [11] = test: Inhibition of mitochondrial function in Candida albicans SC5314 assessed as reduction in ATP production at 3 to 9 ug/ml incubated for 16 hrs by chemiluminescence assay; assay type: functional; conditions: dose 3-9 µg/ml
# Candida albicans [12] = test: Synergistic antifungal activity against Candida albicans SC5314 assessed as reduction in ATP production incubated for 16 hrs in presence of fluconazole by chemiluminescence assay; assay type: functional, organism-based
# Candida albicans [13] = test: Antifungal activity against Candida albicans SC5314 assessed as decrease in mycelial growth at 3 to 9 ug/ml incubated for 24 hrs by crystal violet staining based inverted microscopic analysis; assay type: functional, organism-based; conditions: dose 3-9 µg/ml
# Candida albicans [14] = test: Antifungal activity against Candida albicans SC5314 assessed as morphological change at 3 to 9 ug/ml incubated for 24 hrs by transmission electron microscopic analysis; assay type: functional, organism-based; conditions: dose 3-9 µg/ml
# Cell membrane [15] = test: Induction of […] membrane permeabilization in Candida albicans SC5314 by measuring red fluorescence incubated for 16 to 24 hrs in presence of fluconazole by propyl iodide dye based fluorescence microscopic analysis; assay type: subcellular; conditions: time 16-24 hrs
# Candida albicans [16] = test: Synergistic antifungal activity against Candida albicans SC5314 assessed as decrease in intracellular mitochondrial membrane potential incubated for 16 hrs in presence of fluconazole by JC-1 staining based fluorescence assay; assay type: functional, organism-based
# Cell membrane [17] = test: Induction of […] membrane permeabilization in Candida albicans SC5314 by measuring red fluorescence incubated for 16 to 24 hrs in presence of fluconazole by propyl iodide dye based multifunctional microplate reader analysis; assay type: subcellular; conditions: time 16-24 hrs
# Cell membrane [18] = test: Induction of […] membrane permeabilization in Candida albicans SC5314 by measuring red fluorescence at 3 to 9 ug/ml incubated for 16 to 24 hrs by propyl iodide dye based fluorescence microscopic analysis; assay type: subcellular; conditions: dose 3-9 µg/ml, time 16-24 hrs
# Candida albicans [19] = test: Synergistic antifungal activity against Candida albicans SC5314 assessed as appearance of incomplete cell wall structure incubated for 24 hrs in presence of fluconazole by transmission electron microscopic analysis; assay type: functional, organism-based
# Candida albicans [20] = test: Synergistic antifungal activity against FLC-resistant Candida albicans SC5314 assessed as inhibition of fungal growth incubated for 48 hrs in presence of fluconazole by time-kill assay; assay type: functional, organism-based
# Candida albicans [21] = test: Synergistic antifungal activity against Candida albicans SC5314 assessed as increase in intracellular ROS production incubated for 16 hrs in presence of fluconazole by DCFH-DA staining based ELISA; assay type: functional, organism-based
# Candida albicans [22] = test: Antifungal activity against Candida albicans SC5314 assessed as inhibition of fungal growth at 3 to 9 ug/ml incubated for 24 hrs by crystal violet staining based inverted microscopic analysis; assay type: functional, organism-based; conditions: dose 3-9 µg/ml
# Candida albicans [23] = test: Synergistic antifungal activity against Candida albicans SC5314 assessed as leakage of intracellular debris incubated for 24 hrs in presence of fluconazole by transmission electron microscopic analysis; assay type: functional, organism-based
# Candida albicans [24] = test: Antifungal activity against FLC-resistant Candida albicans SC5314 assessed as inhibition of fungal growth at 3 to 9 ug/ml incubated for 48 hrs by time-kill assay; assay type: functional, organism-based; conditions: dose 3-9 µg/ml
structure (smiles),measurement,setting,value
O=C(CCn1ccc2ccc(F)cc21)NCCNCC(O)COC(Cn1cncn1)c1ccc(F)cc1F (stereo not given),fractional inhibitory concentration index (FICI),Candida albicans [1],0.59
same,MIC50,Candida albicans [2],33.9 µg/mL
same,MIC50,Candida albicans [3],0.79 µg/mL
same,MIC50,Candida albicans [4],> 200 µg/mL
same,fractional inhibitory concentration index (FICI),Candida albicans [5],0.17
O=C(CCn1ccc2cc(Cl)ccc21)NCCNCC(O)COC(Cn1cncn1)c1ccc(F)cc1F (stereo not given),fractional inhibitory concentration index (FICI),Candida albicans [1],0.62
same,MIC50,Candida albicans [2],18.9 µg/mL
same,MIC50,Candida albicans [3],0.83 µg/mL
same,MIC50,Candida albicans [4],> 200 µg/mL
same,fractional inhibitory concentration index (FICI),Candida albicans [5],0.09
CC1Cc2ccccc2N1CCC(=O)NCCNCC(O)COC(Cn1cncn1)c1ccc(F)cc1F (stereo not given),fractional inhibitory concentration index (FICI),Candida albicans [1],6.85
same,MIC50,Candida albicans [2],67.7 µg/mL
same,MIC50,Candida albicans [3],9.22 µg/mL
same,MIC50,Candida albicans [4],> 200 µg/mL
same,fractional inhibitory concentration index (FICI),Candida albicans [5],0.34
OC(Cn1cncn1)(Cn1cncn1)c1ccc(F)cc1F [FLUCONAZOLE],Activity,Candida albicans [6],Active
same,MIC50,Candida albicans [7],> 200 µg/mL
same,MIC50,Candida albicans [4],1.35 µg/mL
same,Activity,Candida albicans [8],Active
same,Activity,Candida albicans [9],inactive
same,Activity,Cell membrane [10],Active
O=C(CCN1CCc2cc(Br)ccc21)NCCNCC(O)COC(Cn1cncn1)c1ccc(F)cc1F (stereo not given),Activity,Candida albicans [11],inactive
same,fractional inhibitory concentration index (FICI),Candida albicans [1],0.85
same,Activity,Candida albicans [12],Dose-Dependent Effect
same,Activity,Candida albicans [13],inactive
same,MIC50,Candida albicans [2],2.82 µg/mL
same,Activity,Candida albicans [14],inactive
same,Activity,Cell membrane [15],Dose-Dependent Effect
same,MIC50,Candida albicans [3],1.14 µg/mL
same,Activity,Candida albicans [16],Dose-Dependent Effect
same,Activity,Cell membrane [17],Dose-Dependent Effect
same,Activity,Cell membrane [18],inactive
same,MIC50,Candida albicans [4],> 200 µg/mL
same,fractional inhibitory concentration index (FICI),Candida albicans [5],0.01
same,Activity,Candida albicans [19],Dose-Dependent Effect
same,Activity,Candida albicans [20],Dose-Dependent Effect
same,Activity,Candida albicans [21],Dose-Dependent Effect
same,Activity,Candida albicans [22],inactive
same,Activity,Candida albicans [23],Dose-Dependent Effect
same,Activity,Candida albicans [24],inactive
O=C(CCN1CCc2ccccc21)NCCNCC(O)COC(Cn1cncn1)c1ccc(F)cc1F (stereo not given),fractional inhibitory concentration index (FICI),Candida albicans [1],4.34
same,MIC50,Candida albicans [2],42.6 µg/mL
same,MIC50,Candida albicans [3],5.84 µg/mL
same,MIC50,Candida albicans [4],> 200 µg/mL
same,fractional inhibitory concentration index (FICI),Candida albicans [5],0.21
O=C(CCN1CCc2ccc(Cl)cc21)NCCNCC(O)COC(Cn1cncn1)c1ccc(F)cc1F (stereo not given),fractional inhibitory concentration index (FICI),Candida albicans [1],0.26
same,MIC50,Candida albicans [2],9.22 µg/mL
same,MIC50,Candida albicans [3],0.35 µg/mL
same,MIC50,Candida albicans [4],> 200 µg/mL
same,fractional inhibitory concentration index (FICI),Candida albicans [5],0.05
O=C(CCN1CCc2cc(Cl)ccc21)NCCNCC(O)COC(Cn1cncn1)c1ccc(F)cc1F (stereo not given),fractional inhibitory concentration index (FICI),Candida albicans [1],1.31
same,MIC50,Candida albicans [2],14 µg/mL
same,MIC50,Candida albicans [3],1.77 µg/mL
same,MIC50,Candida albicans [4],> 200 µg/mL
same,fractional inhibitory concentration index (FICI),Candida albicans [5],0.07
O=C(CCn1ccc2ccccc21)NCCNCC(O)COC(Cn1cncn1)c1ccc(F)cc1F (stereo not given),fractional inhibitory concentration index (FICI),Candida albicans [1],6.26
same,MIC50,Candida albicans [2],50 µg/mL
same,MIC50,Candida albicans [3],8.42 µg/mL
same,MIC50,Candida albicans [4],> 200 µg/mL
same,fractional inhibitory concentration index (FICI),Candida albicans [5],0.25
O=C(CCN1CCc2ccc(F)cc21)NCCNCC(O)COC(Cn1cncn1)c1ccc(F)cc1F (stereo not given),fractional inhibitory concentration index (FICI),Candida albicans [1],1.99
same,MIC50,Candida albicans [2],18.9 µg/mL
same,MIC50,Candida albicans [3],2.68 µg/mL
same,MIC50,Candida albicans [4],> 200 µg/mL
same,fractional inhibitory concentration index (FICI),Candida albicans [5],0.09
Cc1ccc2c(c1)CCN2CCC(=O)NCCNCC(O)COC(Cn1cncn1)c1ccc(F)cc1F (stereo not given),fractional inhibitory concentration index (FICI),Candida albicans [1],1.51
same,MIC50,Candida albicans [2],10.2 µg/mL
same,MIC50,Candida albicans [3],2.03 µg/mL
same,MIC50,Candida albicans [4],> 200 µg/mL
same,fractional inhibitory concentration index (FICI),Candida albicans [5],0.05
O=C(CCn1ccc2ccc(Cl)cc21)NCCNCC(O)COC(Cn1cncn1)c1ccc(F)cc1F (stereo not given),fractional inhibitory concentration index (FICI),Candida albicans [1],0.66
same,MIC50,Candida albicans [2],20 µg/mL
same,MIC50,Candida albicans [3],0.89 µg/mL
same,MIC50,Candida albicans [4],> 200 µg/mL
same,fractional inhibitory concentration index (FICI),Candida albicans [5],0.1
O=C(CCn1ccc2ccc(Br)cc21)NCCNCC(O)COC(Cn1cncn1)c1ccc(F)cc1F (stereo not given),fractional inhibitory concentration index (FICI),Candida albicans [1],0.71
same,MIC50,Candida albicans [2],11.5 µg/mL
same,MIC50,Candida albicans [3],0.95 µg/mL
same,MIC50,Candida albicans [4],> 200 µg/mL
same,fractional inhibitory concentration index (FICI),Candida albicans [5],0.06
O=C(CCN1CCc2ccc(Br)cc21)NCCNCC(O)COC(Cn1cncn1)c1ccc(F)cc1F (stereo not given),fractional inhibitory concentration index (FICI),Candida albicans [1],0.44
same,MIC50,Candida albicans [2],8.92 µg/mL
same,MIC50,Candida albicans [3],0.6 µg/mL
same,MIC50,Candida albicans [4],> 200 µg/mL
same,fractional inhibitory concentration index (FICI),Candida albicans [5],0.04
COc1ccc2c(c1)N(CCC(=O)NCCNCC(O)COC(Cn1cncn1)c1ccc(F)cc1F)CC2 (stereo not given),fractional inhibitory concentration index (FICI),Candida albicans [1],8.64
same,MIC50,Candida albicans [2],111 µg/mL
same,MIC50,Candida albicans [3],11.6 µg/mL
same,MIC50,Candida albicans [4],> 200 µg/mL
same,fractional inhibitory concentration index (FICI),Candida albicans [5],0.56
COc1ccc2ccn(CCC(=O)NCCNCC(O)COC(Cn3cncn3)c3ccc(F)cc3F)c2c1 (stereo not given),fractional inhibitory concentration index (FICI),Candida albicans [1],1.39
same,MIC50,Candida albicans [2],52.5 µg/mL
same,MIC50,Candida albicans [3],1.87 µg/mL
same,MIC50,Candida albicans [4],> 200 µg/mL
same,fractional inhibitory concentration index (FICI),Candida albicans [5],0.26
O=C(CCn1ccc2cc(Br)ccc21)NCCNCC(O)COC(Cn1cncn1)c1ccc(F)cc1F (stereo not given),fractional inhibitory concentration index (FICI),Candida albicans [1],0.63
same,MIC50,Candida albicans [2],12.9 µg/mL
same,MIC50,Candida albicans [3],0.85 µg/mL
same,MIC50,Candida albicans [4],> 200 µg/mL
same,fractional inhibitory concentration index (FICI),Candida albicans [5],0.06
